For 17 molecules, IC50 results are on record in patent US8426446B2, “Acrylamide derivative and use thereof in manufacture of medicament” (Beijing Shiqiao Biopharm Co. Ltd., priority 2009, dated 2013).

For the assay, the system named is Human Leukemia Cell K562. The assay is described as follows: Inhibitory effects on Human Leukemia Cell K562 (MTT). The class given is cell-based. Conditions: Homo sapiens, K562 cells, 72 h~120 h. The procedure: K562 cells were seeded in RPMI1640 cell culture solution containing 10% of fetal calf serum (supplemented with 100 ku/L of penicillin and streptomycin each). Culture dish was placed in the cell incubator under 5% of CO2 at 37° C. The culture solution was centrifuged and replaced every 2-3 days to passage and collect cells.
Cells in logarithmic growth phase were formulated into the cell suspensions at the required concentration with RPMI1640 culture solution containing 10% fetal calf serum. The resulting mixture was added to 96-wells cell culture plate at 3,000 cells per well (100 μl); after 12 hours of culture, to each well was added different amount of stock solution. The final concentrations of the samples are 100 μg/ml, 10 μg/ml, 1 μg/ml, […], and 0.01 μg/ml respectively in triplicate. After 72 h˜120 h, supernatant was discarded. To each well was added […] fresh serum-free culture solution containing 5 mg/ml blue tetrazolium (MTT). After culturing for 4 hours at 37° C., the mixture was centrifuged at 3000 rpm/min and the supernatant was discarded. Formazan was dissolved with 200 μl DMSO. After vortex oscillation for 1 min, absorbance value (OD-value) was measured on microplate reader at the wavelength of 570/450 nm. Inhibition ratio=(control group OD-value−drug group OD-value)/control group OD-value×100%.
For the molecule `Cc1ccc(C(=O)Nc2ccc(Cl)c(C(F)(F)F)c2)cc1NC(=O)/C=C/c1cccnc1` [compound 58, N-(4-chloro-3-(trifluoromethyl)phenyl)-4-methyl-3-(3-(pyridin-3-yl)acrylamido)benzamide], the half-maximal inhibitory concentration (IC50) was less than 1 nM. As to `Cc1ccc(C(=O)Nc2ccc(F)c(C(F)(F)F)c2)cc1NC(=O)/C=C/c1cccnc1` [compound 60, N-(4-fluoro-3-(trifluoromethyl)phenyl)-4-methyl-3-(3-(pyridin-3-yl)acrylamido)benzamide], the half-inhibitory concentration (IC50) was less than 1 nM. `Cc1ccc(NC(=O)c2ccc(C)c(NC(=O)/C=C/c3cccnc3)c2)cc1F` [compound 61, N-(3-fluoro-4-methylphenyl)-4-methyl-3-(3-(pyridin-3-yl)acrylamido)benzamide] had an IC50 of less than 1 nM.

Regarding `Cc1ccc(C(=O)Nc2ccc(C)c(C(F)(F)F)c2)cc1NC(=O)/C=C/c1cccnc1` [compound 62, N-(4-methyl-3-(trifluoromethyl)phenyl)-4-methyl-3-(3-(pyridin-3-yl)acrylamido)benzamide], the half-maximal inhibitory concentration (IC50) is less than 1 nM.

On to `Cc1ccc(NC(=O)c2ccc(C)c(NC(=O)/C=C/c3cccnc3)c2)cc1` [compound 66, N-(4-(methyl)phenyl)-4-methyl-3-(3-(pyridin-3-yl)acrylamido)benzamide], for which the IC50 fell in the range of 2 to 20 nM. The figure for `Cc1ccc(C(=O)Nc2c(C)cccc2Cl)cc1NC(=O)/C=C/c1cccnc1` [compound 67, N-(2-chloro-6-methylphenyl)-4-methyl-3-(3-(pyridin-3-yl)acrylamido)benzamide] is 2 to 20 nM; for `Cc1ccc(C(=O)Nc2ccc(N3CCOCC3)c(C(F)(F)F)c2)cc1NC(=O)/C=C/c1cccnc1` [compound 69, N-(4-(morpholin-4-yl)-3-(trifluoromethyl)phenyl)-4-methyl-3-(3-(pyridin-3-yl)acrylamido)benzamide] it is less than 1 nM.

As to `Cc1ccc(C(=O)Nc2ccc(N3CCN(C)CC3)c(C(F)(F)F)c2)cc1NC(=O)/C=C/c1cccnc1` [compound 71, N-(4-(4-methylpiperazin-1-yl)-3-(trifluoromethyl)phenyl)-4-methyl-3-(3-(pyridin-3-yl)acrylamido)benzamide], the 50% inhibitory concentration (IC50) is less than 1 nM. Consider `CCN1CCN(c2ccc(NC(=O)c3ccc(C)c(NC(=O)/C=C/c4cccnc4)c3)cc2C(F)(F)F)CC1` [compound 74, N-(4-(4-ethylpiperazin-1-yl)-3-(trifluoromethyl)phenyl)-4-methyl-3-(3-(pyridin-3-yl)acrylamido)benzamide], for which the IC50 lay in the range of 2 to 20 nM. With `Cc1ccc(C(=O)Nc2ccc(C)c(C(F)(F)F)c2)cc1NC(=O)/C=C/c1cncnc1` [compound 77, N-(4-methyl-3-(trifluoromethyl)phenyl)-4-methyl-3-(3-(pyrimidin-5-yl)acrylamido)benzamide], the 50% inhibitory concentration (IC50) is less than 1 nM. The molecule `Cc1ccc(C(=O)Nc2ccc(N3CCOCC3)c(C(F)(F)F)c2)cc1NC(=O)/C=C/c1cncnc1` [compound 78, N-(4-(morpholin-4-yl)-3-(trifluoromethyl)phenyl)-4-methyl-3-(3-(pyrimidin-5-yl)acrylamido)benzamide] came in with an IC50 of less than 1 nM.

The molecule `Cc1ccc(C(=O)Nc2ccc(Cl)c(C(F)(F)F)c2)cc1NC(=O)/C=C/c1cncnc1` [compound 79, N-(4-chloro-3-(trifluoromethyl)phenyl)-4-methyl-3-(3-(pyrimidin-5-yl)acrylamido)benzamide] had an IC50 of 2 to 20 nM.

In turn, `Cc1ccc(NC(=O)c2ccc(C)c(NC(=O)/C=C/c3cncnc3)c2)cc1F` [compound 80, N-(3-fluoro-4-methylphenyl)-4-methyl-3-(3-(pyrimidin-5-yl)acrylamido)benzamide] yielded an IC50 of 2 to 20 nM. `Cc1ccc(C(=O)Nc2ccc(F)c(Cl)c2)cc1NC(=O)/C=C/c1cncnc1` [compound 81, N-(3-chloro-4-fluorophenyl)-4-methyl-3-(3-(pyrimidin-5-yl)acrylamido)benzamide] yielded an IC50 of less than 20 nM. Take `Cc1ccc(C(=O)Nc2c(C)cccc2Cl)cc1NC(=O)/C=C/c1cncnc1` [compound 82, N-(2-chloro-6-methylphenyl)-4-methyl-3-(3-(pyrimidin-5-yl)acrylamido)benzamide]: the half-inhibitory concentration (IC50) was less than 20 nM. `Cc1cn(-c2cc(NC(=O)c3ccc(C)c(NC(=O)/C=C/c4cncnc4)c3)cc(C(F)(F)F)c2)cn1` [compound 90, N-(3-(4-methyl-1H-imidazol-1-yl)-5-(trifluoromethyl)phenyl)-4-methyl-3-(3-(pyrimidin-5-yl)acrylamido)benzamide] had an IC50 of less than 1 nM. Consider `Cc1ccc(NC(=O)Nc2ccc(F)c(Cl)c2)cc1NC(=O)/C=C/c1cccnc1` [compound 102, N-(5-(3-(3-chloro-4-fluorophenyl)ureido)-2-methylphenyl)-3-(pyridin-3-yl)acrylamide], for which the IC50 lay within 10 to 20 nM.

A word on the IC50: it is the concentration that inhibits the measured activity by half. Lower therefore signals higher potency.
